Our source for the inhibition and IC50 values is patent publication US20030236276A1, “Pyrrolo[2.1-a]isoquinoline derivatives” (priority 2001, published 2003).

Structures are written as SMILES.

Assay [1] has as its system MDA-MB-231 human breast carcinoma cells. In words: In vitro proliferation inhibition assay (LDH activity, 72 hours). Particulars: MDA-MB-231 cells; for inhibition at 2 µM: read-out: % inhibition at a concentration of 2 μM; for inhibition at 10 µM: read-out: % inhibition at a concentration of 10 μM. It is filed as cell-based. The method, then:
In vitro Proliferation Inhibition Assay:
MDA-MB-231 human breast carcinoma cells (ATCC #HTB26) were cultured in standard growth medium (DMEM), supplemented with 10% heat-inactivated FBS, 10 mM HEPES, 2 mM glutamine, 100 U/mL penicillin, and 100 μg/mL streptomycin) at 37° C. in 5% CO2 (vol/vol) in a humidified incubator. Cells were plated at a density of 3000 cells per well in 100 μL growth medium in a 96 well culture dish. 24 hours after plating, lactate dehydrogenase (LDH) activity was determined using the Cytotox 96 Non-radioactive Cytotoxicity Kit (Promega, Madison Wis., U.S.A.) to yield T0h LDH values. Briefly, cells were lysed with the addition of 200 μL of Lysis Buffer (included in the Promega Kit) and lysates were further diluted 1:50 in Lysis Buffer. 50 μL of diluted cell lysate were transferred to a fresh 96 well culture plate. The assay was initiated with the addition of 50 μL of substrate per well. Color development was allowed to proceed for 10-15 minutes. The assay was terminated with the addition of 50 μL of Stop Solution (included in the Promega Kit). Optical densities were determined spectrophotometrically at 490 nm in a 96 well plate reader (SpectraMax 250, Molecular Devices, Sunnyvale, Calif., U.S.A.).
Test compounds were dissolved in 100% DMSO to prepare 10 mM stocks. Stocks were further diluted 1:250 in growth medium to yield working stocks of 40 μM test compound in 0.4% DMSO. Test compounds were serially diluted in growth medium containing 0.4% DMSO to maintain constant DMSO concentrations for all wells. 50 μL of fresh growth medium and 50 μL of diluted test compound were added to each culture well to give a final volume of 200 μL. The cells with and without individual test compounds were incubated for 72 hours at which time LDH activity was measured to yield T72h values. Optionally, the IC50 values can be determined with a least squares analysis program using compound concentration versus percent inhibition.
% Inhibition=[1−(T72h test−T0h)/(T72h ctrl−T0h)]×100
T72h test=LDH activity at 72 hours in the presence of test compound
T72h ctrl=LDH activity at 72 hours in the absence of test compound
T0h=LDH activity at Time Zero

The next assay deals with T1, PDE 10a (Homo sapiens, UniProt Q9Y233).
T1 construct: Full-length recombinant PDE 10a was expressed in Sf9 insect cells; made in house; host or cells: Sf9 insect cells (baculovirus, Bac-to-Bac)
In words: In vitro enzyme inhibition assay (PDE 10a, scintillation proximity, [3H]cAMP substrate). Type of assay: biochemical. To be noted: full-length recombinant PDE 10a, crude Sf9 cell lysate; 60 minutes, room temperature. The method, then:
In vitro Enzyme Inhibition Assay:
Full-length recombinant PDE 10a was expressed in Sf9 insect cells (Invitrogen, Carlsbad, Calif., U.S.A.) using the Bac-to-Bac™ Baculovirus Expression System (Life Technologies, Gaithersburg, Md., U.S.A.). 48 hours post infection, cells were harvested and resuspended in 20 mL (per 1L culture) Lysis Buffer (50 mM Tris-HCl, pH 7.4, 50 mM NaCl, 1 mM MgCl2, 1.5 mM EDTA, 10% glycerol plus 20 μL Protease Inhibitor Cocktail Set III [CalBiochem, La Jolla, Calif., U.S.A.]). Cells were sonicated at 4° C. for 1 minute and centrifuged at 10,000 RPM for 30 minutes at 4° C. Supernatant was removed and stored at −20° C. for activity assays.
The test compounds were serially diluted in DMSO using two-fold dilutions to stock concentrations ranging typically from 200 μM to 1.6 μM (final concentrations in the assay range from 4 μM to 0.032 μM). 96-well assay isoplates (Wallac Inc., Atlanta, Ga., U.S.A.) were loaded with 2 μL of the serially diluted individual test compounds followed by 50 μL of a dilution of crude recombinant PDE 10a-containing sf9 cell lysate. The dilution of the lysate was selected such that less than 70% of the substrate is converted during the later incubation (typical dilution: 1:10000; dilution buffer: 50 mM Tris/HCl pH 7.5, 8.3 mM MgCl2, 1.7 mM EDTA, 0.2% BSA). The substrate, [5′,8-^3H] adenosine 3′,5′-cyclic phosphate (1 μCi/μL; Amersham Pharmacia Biotech., Piscataway, N.J., U.S.A.), was diluted 1:2000 in assay buffer (assay buffer: 50 mM Tris/HCl pH 7.5, 8.3 mM MgCl2, 1.7 mM EDTA) to give a final working concentration of 0.0005 μCi/μL. The enzymatic assay was initiated by addition of 50 μL (0.025 μCi) of diluted substrate. Reactions were incubated at room temperature for 60 minutes and terminated by addition of 25 μL of 18 mg/mL Yttrium Scintillation Proximity Beads (Amersham Pharmacia Biotech., Piscataway, N.J., U.S.A.). Plates were sealed and incubated at room temperature for 60 minutes. Plates were read for 30 seconds/well using a Microbeta counter (Wallac Inc., Atlanta, Ga., U.S.A.). The IC50 values were determined by plotting compound concentration versus percent inhibition.
A general note: SPA uses beads or plates that emit light when radiolabelled molecules are held near them.

T1 sequence (Q9Y233 1-779 isoform Q9Y233-1): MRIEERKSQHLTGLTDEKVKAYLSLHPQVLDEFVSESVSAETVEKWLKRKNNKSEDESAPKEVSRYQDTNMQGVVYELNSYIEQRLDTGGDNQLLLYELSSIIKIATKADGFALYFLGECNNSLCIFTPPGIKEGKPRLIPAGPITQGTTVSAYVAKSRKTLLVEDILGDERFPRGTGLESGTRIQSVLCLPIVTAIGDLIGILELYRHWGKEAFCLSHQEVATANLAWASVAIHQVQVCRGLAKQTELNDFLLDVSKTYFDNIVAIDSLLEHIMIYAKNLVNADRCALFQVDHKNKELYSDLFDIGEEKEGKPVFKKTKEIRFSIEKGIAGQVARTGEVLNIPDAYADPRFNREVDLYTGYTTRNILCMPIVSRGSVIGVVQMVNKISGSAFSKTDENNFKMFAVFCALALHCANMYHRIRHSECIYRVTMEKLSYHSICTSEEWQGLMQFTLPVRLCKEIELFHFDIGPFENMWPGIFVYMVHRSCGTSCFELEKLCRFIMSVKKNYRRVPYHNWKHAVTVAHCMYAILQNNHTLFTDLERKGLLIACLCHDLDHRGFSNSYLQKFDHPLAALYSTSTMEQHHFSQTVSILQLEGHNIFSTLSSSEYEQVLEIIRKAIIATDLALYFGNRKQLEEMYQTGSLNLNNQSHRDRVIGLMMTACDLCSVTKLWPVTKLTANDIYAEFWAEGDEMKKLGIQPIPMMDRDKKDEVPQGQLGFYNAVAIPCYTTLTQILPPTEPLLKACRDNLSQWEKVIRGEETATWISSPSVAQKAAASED

Consider `CCCNC(=O)N1CCc2cc(-c3c(C(=O)OCC)c4n(c3C)CCc3cc(OC)c(OC)cc3-4)ccc21` [Example 81], for which the inhibition at 2 µM in assay [1] was 89%. Besides, the IC50 on PDE 10a is 100 nM.
In the same order, the values of `CCOC(=O)c1c(-c2c[nH]c3cc(F)ccc23)c(C)n2c1-c1cc(OC)c(OC)cc1CC2` [Example 52] are 81% and 220 nM.
Take `CCOC(=O)c1c(-c2ccc3[nH]cc(C(C)=O)c3c2)c(C)n2c1-c1cc(OC)c(OC)cc1CC2` [Example 72]: in assay [1], the inhibition at 2 µM was 81%.
Consider `CCOC(=O)c1c(-c2cccc3c2ccn3CC)c(C)n2c1-c1cc(OC)c(OC)cc1CC2` [Example 57, Ethyl 2-(1-ethyl-1H-indol-4-yl)-8,9-dimethoxy-3-methyl-5,6-dihydropyrrolo[2,1-a]-isoquinoline-1-carboxylate], for which, in assay [1], the inhibition at 2 µM came out at 89%. The half-inhibitory concentration (IC50) at PDE 10a worked out at 1500 nM.
Taken in the same sequence, the figures for `CCOC(=O)c1c(-c2c[nH]c3ccc(Cl)cc23)c(C)n2c1-c1cc(OC)c(OC)cc1CC2` [Example 50] were 77% and 330 nM.
`CCOC(=O)c1c(-c2cn(Cc3ccccc3)c3ccccc23)c(C)n2c1-c1cc(OC)c(OC)cc1CC2` [Example 56]: the inhibition at 2 µM in assay [1] was 64%. The IC50 on PDE 10a is 68 nM.
In the same order, the values of `CCOC(=O)c1c(-c2c[nH]c3c(OC)cccc23)c(C)n2c1-c1cc(OC)c(OC)cc1CC2` [Example 46, Ethyl-2-(1H-7-methoxy-indol-3-yl)-8,9-dimethoxy-3-methyl-5,6-dihydropyrrolo[2,1-a]isoquinoline-1-carboxylate] are 90% and 220 nM.
In the same order, the values of `CCOC(=O)c1c(-c2cn(C)c3ccccc23)c(C)n2c1-c1cc(OC)c(OC)cc1CC2` [Example 23] are 90% and 71 nM.
With `CCOC(=O)c1c(C(C)C)c(C)n2c1-c1cc(OC)c(OC)cc1CC2` [Example 5], in assay [1], the inhibition at 10 µM was found to be 87%. In addition, the IC50 on PDE 10a came out at 370 nM.
Regarding `CCOC(=O)c1c(-c2cccc3cc[nH]c23)c(C)n2c1-c1cc(OC)c(OC)cc1CC2` [Example 49], the inhibition at 2 µM in assay [1] amounted to 91%. Moreover, on PDE 10a, the IC50 came out at 110 nM.
In the same order, the values of `CCOC(=O)c1c(-c2cccc3c2ccn3CCC#N)c(C)n2c1-c1cc(OC)c(OC)cc1CC2` [Example 61] are 90% and 200 nM.
For the molecule `CCOC(=O)c1c(-c2ccc3c(c2)CCN3S(=O)(=O)c2ccccc2)c(C)n2c1-c1cc(OC)c(OC)cc1CC2` [Example 87], the inhibition at 2 µM in assay [1] stood at 95%. For the same molecule, at PDE 10a, the IC50 is below 30 nM.
`CCOC(=O)c1c(-c2cccc3c(C(=O)C4CC4)c[nH]c23)c(C)n2c1-c1cc(OC)c(OC)cc1CC2` [Example 68, Ethyl 2-[3-(cyclopropylcarbonyl)-1H-indol-7-yl]-8,9-dimethoxy-3-methyl-5,6-dihydropyrrolo[2,1-a]isoquinoline-1-carboxylate]: the inhibition at 2 µM in assay [1] was found to be 43%.
As for `CCOC(=O)c1c(-c2ccc3c(c2)CCN3S(C)(=O)=O)c(C)n2c1-c1cc(OC)c(OC)cc1CC2` [Example 88], the inhibition at 2 µM in assay [1] was found to be 40%.
Regarding `CCOC(=O)c1c(-c2ccc3ncoc3c2)c(C)n2c1-c1cc(OC)c(OC)cc1CC2` [Example 76, Ethyl 2-(1,3-benzoxazol-6-yl)-8,9-dimethoxy-3-methyl-5,6-dihydropyrrolo[2,1-a]isoquinoline-1-carboxylate], the inhibition at 2 µM in assay [1] was 63%. For the same molecule, the IC50 at PDE 10a was determined as 150 nM.
Taken in the same sequence, the figures for `CCOC(=O)c1c(-c2cccc3c(C(=O)c4ccccc4)c[nH]c23)c(C)n2c1-c1cc(OC)c(OC)cc1CC2` [Example 71] were 72% and 170 nM.
Regarding `CCOC(=O)c1c(-c2cccc3ncc(C)cc23)c(C)n2c1-c1cc(OC)c(OC)cc1CC2` [Example 7], in assay [1], the inhibition at 10 µM stood at 85%. Further, on PDE 10a, the half-inhibitory concentration (IC50) is 140 nM.
With `CCOC(=O)c1c(-c2c[nH]c3ccc(OC)cc23)c(C)n2c1-c1cc(OC)c(OC)cc1CC2` [Example 12], in assay [1], the inhibition at 2 µM was 73%. For the same molecule, the IC50 on PDE 10a was 365 nM.
As for `CCOC(=O)c1c(-c2cn(C(C)=O)c3ccccc23)c(C)n2c1-c1cc(OC)c(OC)cc1CC2` [Example 8], the inhibition at 10 µM in assay [1] was 84%. In addition, the IC50 at PDE 10a came to 94 nM.

Usually IC50 stands for the midpoint of a concentration-inhibition curve.
